The results in this text go back to US7629379B2, “Substituted phosphonate fluorescent sensors and use thereof” (Queen Mary & Westfield College, priority 2003, dated 2009).

Data set [1] concerns Zn^+2 in fibrosarcoma cells. As to the kind of experiment: Imaging of Zn^+2 in fibrosarcoma cells. The note with it: added to any of the wells with phosphonate and zinc. It counts as cell-based.

Counter-ions that a name gives are not always drawn.

The term melting point denotes the temperature, or range, at which the solid turns liquid.

As for `Cc1cc(=O)oc2cc(OCP(=O)(O)O)ccc12` [di-sodium salt of Example 5, 4-methylcoumarin 7-oxymethylphosphonic acid], the uptake into cells entry in the data set with Fibrosarcoma cells was “taken up in the cytoplasm within the fibrosarcoma cells”.
In the case of `O=P(O)(O)COc1ccc2c(c1)[nH]c1ccccc12` [Example 9, 2-carbazolyloxymethyl phosphonic acid], the melting point came out at 291 °C.
In the case of `O=P(O)(O)COc1cccc2cccnc12` (as salt: salt) [Example 2, 8-quinolyloxy methylphosphonic acid], the melting point fell in the range of 285 to 288 °C.
Consider `c1ccc(CN(CCN(Cc2ccccn2)Cc2ccccn2)Cc2ccccn2)nc1` [TPEN, N,N,N′,N′-tetrakis(2-pyridylmethyl)ethylenediamine], for which the “effect of excess chelator on the cell fluorescence” value in data set [1] is recorded as “very significant quenching of the fluorescence”.
`CCOP(=O)(COc1ccc2c(c1)[nH]c1ccccc12)OCC` [Example 8, diethyl-2-carbazolyloxymethylphosphonate] registered a melting point of 159 °C. In the data set with Fibrosarcoma cells, the uptake into cells entry is reported as “taken up in the cytoplasm within the fibrosarcoma cells”.
With `O=P([O-])([O-])Cn1c2ccccc2c2ccccc21.[Na+].[Na+]` [di sodium N-carbazolylmethylphosphonate], the uptake into cells entry in the data set with Fibrosarcoma cells is on record as “taken up in the cytoplasm within the fibrosarcoma cells”. Moreover, the “penetration of brain cell types and regions” value in the data set on Slices of rat brain was “went into the endothelial and neuronal cells”.
